Experimental data as given in patent US10765716B2, “Obesity treatment” (priority 2017, dated 2020).

What was measured:
Format in all cases: in vivo, male Wistar rats
high fat diet rats = assay: Preventive study: high fat diet rats given extract or standard drugs for 8 weeks (food intake, body weight, lipid profile, fasting blood glucose, liver histology); settings: preventive study 8 weeks
Experimental: (§1) The crude extracts of C. latifolia were suspended in distilled water before its administration to the rat models. Orlistat and Sibutramine were used as standard drugs at doses of 100 mg/kg, and 5 mg/kg, respectively (dissolved in distilled water).
(§2) Thirty male Wistar rats (210-220 g) were obtained from the animal house facility of Dr. Panjwani Center for Molecular Medicine and Drug Research (ICCBS). All animals were kept under standard conditions of temperature and humidity with a 12 h light/dark cycle, approved by the Ethical Committee of International Center for Chemical and Biological Sciences (Protocol number: 2013-0001). After one week of acclimation period, rats were randomly divided into […]. The control group was fed with normal diet (D12450B, Research Diets, USA), whereas the other groups were fed high-fat diet (D12451, Research Diets, USA) for a period of 16-week. After 10 weeks, biochemical parameters were evaluated regularly to establish whether the model has developed the symptoms of metabolic syndrome. […]
(§3) Body weights were recorded weekly throughout the experiment. The food intake was calculated by using following formula, as described by Ghezzi et al, 2012: […]
(§4) Blood glucose, serum insulin, total cholesterol, triglycerides, HDL, LDL, very low density lipoproteins […], urea, creatinine, aspartate aminotransferase […], alkaline phosphatase (ALP), serum glutamic pyruvic transaminase (SGPT), and direct and total bilirubin were estimated. Fasting blood glucose levels were measured using glucometer (AccuChek Performa, Australia). Fasting insulin levels were quantified using ultra sensitive rat insulin ELISA kit (Crystal Chem. Downers Grove, USA). Insulin sensitivity was evaluated using Homeostatic Model Assessment (HOMA). Serum total cholesterol, triglycerides, HDL, LDL, VLDL, urea, creatinine, AST, ALP, SGPT, and direct and total bilirubin were analyzed using automatic analyzer (Hitachi, Roche Diagnostics 902, Tokyo, Japan).

[1] = test system: high-fat diet induced obese rats; assay: Therapeutic study: high-fat diet induced obese rats treated for 12 weeks (food intake, body weight, lipid profile, fasting blood glucose, leptin, insulin, histology); settings: for average food intake (in words): therapeutic study 12 weeks, Orlistat (TO), Sibutramine (TS), extract (TC1 and TC2)
Experimental: as §1, §2, §3, §4

[2] = test system: high-fat diet induced obese rats; assay: Renal and liver toxicity assessment after 12 weeks of treatment period
Experimental: Whereas for therapeutic studies the animal groups were as follow: Group 1 (TA), Control; animals in this group received LFD, and distilled water Group 2 (TC), Pathological control; animals in this group received HFD, and distilled water. Groups 3 (TO), High fat diet induced obese animals in this group received standard drug Orlistat (100 mg/kg/day). Group 4 (TS): High fat diet induced obese animals in this group received standard drug Sibutramine (5 mg/kg/day), Group 5 (TC1): High fat diet induced obese animals in this group received C. latifolia extract (150 mg/kg/day). Group 6 (FC2) High fat diet induced obese animals in this group received C. latifolia extract (300 mg/kg/day). […]
Blood glucose, serum insulin, total cholesterol, triglycerides, HDL, LDL, very low density lipoproteins […], urea, creatinine, aspartate aminotransferase […], alkaline phosphatase (ALP), serum glutamic pyruvic transaminase (SGPT), and direct and total bilirubin were estimated. Fasting blood glucose levels were measured using glucometer (AccuChek Performa, Australia). Fasting insulin levels were quantified using ultra sensitive rat insulin ELISA kit (Crystal Chem. Downers Grove, USA). Insulin sensitivity was evaluated using Homeostatic Model Assessment (HOMA). […]

CCCCCCCCCCC[C@@H](C[C@@H]1OC(=O)[C@H]1CCCCCC)OC(=O)[C@H](CC(C)C)NC=O [Orlistat]
FBG (fasting blood glucose) (high fat diet rats; 100 mg/kg (PO)): 79 ± 1.04 mg/dL
average food intake (in words) [1]: decrease
Direct bilirubin ([2]; rat, in vivo, 100 mg/kg): 0.06 ± 0.008 mg/dL

CC(C)CC(N(C)C)C1(c2ccc(Cl)cc2)CCC1 (centres unmarked) [Sibutramine]
FBG (fasting blood glucose) (high fat diet rats; 5 mg/kg (PS)): 76 ± 2.12 mg/dL
Triglyceride (high fat diet rats; serum, 5 mg/kg (PS)): 51 ± 0.19 mg/dL
FBG (fasting blood glucose) ([1]; after 12 weeks of treatment, 5 mg/kg (TS)): 80 ± 0.12 mg/dL
average food intake (in words) [1]: decrease
Direct bilirubin ([2]; liver toxicity, after 12 weeks of treatment, 5 mg/kg (TS)): 0.03 ± 0.004 mg/dL
